Values after ≈ are worked out from the molar mass of the structure shown. Values joined by “and” are separate entries in the source; they are usually repeats but may differ in a detail not shown here. Equal values may be shown once.
Key:
E. coli clinical strains = experiment: Susceptibility (MIC50 and MIC90 determination) studies, clinical strains; format: cell-based; settings: CLSI
[1] = system: P. aeruginosa [ATCC27853]; experiment: Neutropenic Lung Infection Model in Rat; format: in vivo; settings: 30 mg/kg, i.v. bolus
Description: Animals were placed into an induction chamber and anaesthesia was induced by exposing the animals to 3-5% Isoflurane in an oxygen flow set at approximately (˜) 1 liter per minute (LPM). […] A gentle mixing of inoculum between two animals was followed for uniform distribution.
Meropenem was formulated in saline.
Entire Lung was aseptically isolated, weighed and placed into 1 mL of sterile CSDB broth, and homogenized (Omni Tip (220 V hand held)). Serial ten-fold dilutions of the lungs homogenates were prepared in sterile CSD broth and 0.05 mL of four dilutions for each tissue was plated onto CSDA agar plates. Bacterial colonies were enumerated following overnight incubation at 37° C. Bacterial densities were estimated as Log10 CFU/g lung. The Mean±SD Log10 CFU/g lung was estimated in each group.

[2] = system: P. aurigenosa clinical strains; experiment: Susceptibility (MIC50 and MIC90 determination) studies, clinical strains; format: cell-based; settings: CLSI
[3] = system: A. baumanni clinical strains; experiment: as above; format: cell-based; settings: CLSI
[4] = system: E. cloacae clinical strains; experiment: as above; format: cell-based; settings: CLSI
[5] = system: K. pneumoniae clinical strains; experiment: as above; format: cell-based; settings: CLSI
E. coli [ATCC25922] = experiment: Urinary Tract Infection Rat Model (kidneys, bladder); settings: 30 mg/kg, i.v. bolus
[6] = Escherichia coli, E. coli clinical strains
[7] = individual animals, 24 h post infection
[8] = Klebsiella pneumoniae, Kpn clinical strains

Work on `C[C@@H](O)[C@H]1C(=O)N2C(C(=O)O)=C(S[C@@H]3CN[C@H](C(=O)N(C)C)C3)[C@H](C)[C@H]12` [Meropenem, meropenem, reference compound] yielded a Minimum (MIC) (E. coli clinical strains; E. coli clinical strains, MIC50/MIC90 in μg/ml) of 0.03 µg/mL, an MIC ATCC25922 (E. coli clinical strains; E. coli reference strain ATCC25922, MIC50/MIC90 in μg/ml) of 0.06 µg/mL (≈ 0.156 µM) and an MIC50 (E. coli clinical strains; [6]) of 0.06 µg/mL (≈ 0.156 µM). The MIC90 (E. coli clinical strains; [6]) was 4 µg/mL (≈ 10.4 µM), the “MEAN ± SD (Log10 CFU/g Lung)” value [1] was 5.43 ± 0.14 Log10 CFU/g Lung and the “Mean Log 10 CFU/g lung reduction (wrt 4 h PI control: 6.52 Log10CFU/g lung)” value [1] was 1.09 Log 10 CFU/g lung. For the same molecule, the “Log10 CFU/g Lung” value [1, 7] was 5.35 Log10 CFU/g Lung and 5.36 Log10 CFU/g Lung and 5.59 Log10 CFU/g Lung, the MIC50 ([2]; Pae clinical strains) was 2 µg/mL (≈ 5.22 µM) and the MIC90 ([2]; Pae clinical strains) was 8 µg/mL (≈ 20.9 µM). It also gave a Minimum (MIC) ([2]; Pae clinical strains, MIC50/MIC90 in μg/ml) of 0.03 µg/mL, an MIC ATCC27853 ([2]; Pae reference strain ATCC27853, MIC50/MIC90 in μg/ml) of 0.5 µg/mL (≈ 1.3 µM) and an MIC50 ([3]; Aba clinical strains) of 8 µg/mL (≈ 20.9 µM). The MIC90 ([3]; Aba clinical strains) was 32 µg/mL (≈ 83.4 µM), the “Minimum (MIC)” value ([3]; Aba clinical strains, MIC50/MIC90 in μg/ml, in µg/mL) was 0.03125 and the MIC ATCC19606 ([3]; Aba reference strain ATCC19606, MIC50/MIC90 in μg/ml) was 0.5 µg/mL (≈ 1.3 µM). For the same molecule, the Minimum (MIC) ([4]; MIC50/MIC90 in μg/ml) was 0.06 µg/mL, the MIC50 ([4]; Enterobacter cloacae) was 0.25 µg/mL (≈ 0.652 µM) and the MIC90 ([4]; Enterobacter cloacae) was 16 µg/mL (≈ 41.7 µM). The MIC50 [5, 8] was 1 µg/mL (≈ 2.61 µM), the MIC90 [5, 8] was 16 µg/mL (≈ 41.7 µM) and the Minimum (MIC) ([5]; Kpn clinical strains, MIC50/MIC90 in μg/ml) was 0.03 µg/mL. For the same molecule, the MIC ATCC13883 ([5]; Kpn reference strain ATCC13883, MIC50/MIC90 in μg/ml) was 0.06 µg/mL (≈ 0.156 µM), the “MEAN ± SD (Log10 CFU/g kidneys)” value (E. coli [ATCC25922]) was 3.83 ± 0.27 Log10 CFU/g kidneys and the “MEAN ± SD (Log10 CFU/ml Bladder)” value (E. coli [ATCC25922]) was 4.69 ± 0.32 Log10 CFU/ml Bladder. For the same molecule, the “Mean Log10CFU/g kidney reduction (wrt 4 h PI control: 4.53 Log10CFU/g kidneys)” value (E. coli [ATCC25922]) was 0.70 Log10CFU/g kidney, the “Mean Log10 CFU/ml Bladder reduction (wrt 4 h PI control: 5.72 CFU/ml Bladder)” value (E. coli [ATCC25922]) was 1.03 Log10 CFU/ml Bladder and the “Log10 CFU/g (Left Kidney)” value (E. coli [ATCC25922]; [7]) was 3.61 Log10 CFU/g and 3.92 Log10 CFU/g and 4.06 Log10 CFU/g. For the same molecule, the “Log10 CFU/g (Right Kidney)” value (E. coli [ATCC25922]; [7]) was 3.41 Log10 CFU/g and 4.12 Log10 CFU/g and 3.87 Log10 CFU/g and the “Log10 CFU/ml Bladder” value (E. coli [ATCC25922]; [7]) was 4.87 Log10 CFU/ml Bladder and 4.33 Log10 CFU/ml Bladder and 4.89 Log10 CFU/ml Bladder.

From patent US11401277B2, “Anti-bacterial heterocyclic compounds and their synthesis” (Bugworks Research, Inc., priority 2017, dated 2022)
